# Measured values taken from patent publication US20230331803A1, “CO-AGONISTS OF THE GLP-1 AND AMYLIN RECEPTORS” (priority 2020, published 2023).
# Entries after “also recorded” stand apart in the source; their conditions may differ. Like-named read-outs stand apart in the source and are kept apart here. Starred links: 1 amine or outer side, 2 acyl side, 3 side chain; linkers in the order of their positions; H or OH if unused. Non-standard residues stand in square brackets, D forms with d. Groups on a side chain read outwards from the residue. *: point of attachment. Decanoyl(10-(4-HOOC-PhO)) = O=C(O)c1ccc(OCCCCCCCCCC(=O)*)cc1; C20 diacid = O=C(O)CCCCCCCCCCCCCCCCCCC(=O)*; C18 diacid = O=C(O)CCCCCCCCCCCCCCCCC(=O)*; C16 diacid = O=C(O)CCCCCCCCCCCCCCC(=O)*; γGlu = O=C(O)[C@H](CCC(=O)[*:2])N[*:1]; Desaminohistidyl = O=C(CCc1c[nH]cn1)*; εLys = N[C@@H](CCCCN[*:1])C(=O)[*:2]; Trx = NC[C@H]1CC[C@H](C(=O)O)CC1; AEEA = NCCOCCOCC(=O)O; Aib = CC(C)(N)C(=O)O; Ahx = NCCCCCC(=O)O
# Key:
# [1] = target: T1, human amylin receptor (hAmyR3) (Homo sapiens, UniProt O60896+P30988); experiment: Human amylin receptor in vitro potency assay (CRE-luciferase reporter, BHK cells); assay type: cell-based; details: for Ability to agonise the amylin receptor, in words: Tables 4a-4c;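 on all read-outs here: BHK cells expressing human calcitonin receptor plus RAMP3 (amylin-3 receptor) with a CRE-luciferase reporter, agonist activity read as luminescence from cAMP-driven transcription, 7-point serial dilutions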
# T1 construct: host or cells: BHK cells (Hollex-1 line: human calcitonin receptor (a) + CRE-Luc), further transfected with human RAMP3
# Excerpt: Activation of hAmyR3 leads to increased cellular concentrations of cAMP. Consequently, transcription is activated by promotors containing multiple copies of the cAMP response element (CRE). It is thus possible to measure hAmyR3 activity using a CRE-luciferase reporter gene introduced into Baby Hamster Kidney (BHK) cells co-expressing the hAmyR3.
# The cell line was further transfected with human receptor modifying protein 3 (RAMP3) using standard methods. This turns the human calcitonin receptor into a human amylin-3(a) receptor.
# (§1) Cells were aliquoted and stored at -180° C. until use.
# The plate was incubated over night at 37° C. in 5% CO2. On the day of the assay, cells were washed three times in assay buffer. Serial dilutions (7-fold dilutions, 7 concentrations pr. compound and one well containing only assay buffer) of comparator compounds and GLP-1 receptor-amylin receptor co-agonists were performed in assay buffer often starting from approximately 10-100 nM in 96-well plates and 30 µL of each concentration added to the 384-well assay plate with cells. […] The assay plate was sealed, incubated at room temperature with gentle shaking for 5 minutes followed by 30 minutes incubation without shaking while protected from light. Luminescence was detected on a luminescence plate reader e.g. a Synergy 2 (BioTek).
# Sprague Dawley (SD) rats = experiment: Acute food intake in ad libitum fed rats after a single subcutaneous administration; assay type: in vivo, rat; details: for Food intake relative to vehicle (%) 0-24 hr, 10 nmol/kg / Food intake relative to vehicle (%) 24-48 hr, 10 nmol/kg: rat, single administration; for Inhibition of food intake, in words: rats, 10 nmol/kg;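 on all read-outs here: food intake monitored in the HM2 system, three rats per cage kept on a reversed light cycle, with food and water freely available after the subcutaneous dose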
# Excerpt: Sprague Dawley (SD) rats from Taconic Europe, Denmark were used for the acute food intake experiments, wherein the principles of laboratory animal care were followed.
# The rats arrived at least 10-14 days before the start of the experiment to allow acclimatisation to experimental settings. During this period, the animals were handled at least 2 times. Immediately upon arrival, rats were put on a reversed light cycle (dark from 11am - 11pm) and put in the HM2 system and ID chipped. Three rats were housed in each cage. […] The rats were dosed once according to body weight with a 0.01-3 mg/kg solution administered subcutaneously (sc). The time of dosing was recorded for each group.
# After dosing, the rats were returned to their home cages, where they had access to food and water. […] At the end of the experimental session, the animals were euthanised.
# human GLP-1 receptor = target: T2, human GLP-1 receptor (Homo sapiens, UniProt P43220); experiment: Human GLP-1 receptor in vitro potency assay (CRE-luciferase reporter, BHK cells); assay type: cell-based
# T2 construct: expressed in transfected cells; host or cells: BHK (Baby Hamster Kidney) cells, clone BHK 467-12A KZ-10, stably transfected, with CRE-luciferase reporter
# Experimental: It is thus possible to measure GLP-1 receptor activity using a CRE-luciferase reporter gene introduced into Baby Hamster Kidney (BHK) cells co-expressing the GLP-1 receptor.
# as §1
# Plates were sealed and incubated at room temperature with gentle shaking for 30 minutes while protected from light. Luminescence was detected on a luminescence plate reader e.g. a Synergy 2 (BioTek).
# [2] = Pharmacokinetic studies in Beagle dogs after oral administration of SNAC-based tablets; assay type: in vivo; details: for Tmax / half-life: male, Beagle
# Experimental: To be able to evaluate oral exposure following tablet dosing, tablet compositions comprising the test substance and SNAC (sodium N-(8-(2-hydroxybenzoyl)amino)caprylate) were prepared by mixing test substance with roller compacted SNAC and magnesium stearate as, e.g., described in WO 2019/149880. The amount of SNAC in the tablet composition was 100-300 mg, the amount of magnesium stearate in the tablet composition was 7.7 mg, and the target amount of each test substance in the tablet composition was 3-4 mg.
# Pharmacokinetic (PK) studies in Beagle dogs were conducted to determine the exposure of the GLP-1 receptor-amylin receptor co-agonist after peroral administration.
# For the pharmacokinetic studies male Beagle dogs were used, 2-7, or 1 to 5, years of age and weighing approximately 10-15, such as 10-12, kg at the start of the studies. The dogs were group housed in pens (12 hours light: 12 hours dark),and fed individually and restrictedly once daily with Royal Canin Medium Adult dog (Royal Canin Products, China Branch, or Brogaarden A/S, Denmark). Exercise and group social were permitted daily, whenever possible. The dogs were used for repeated pharmacokinetic studies with a suitable wash-out period between successive dosing. An appropriate acclimatisation period was given prior to initiation of the first pharmacokinetic study. All handling, dosing and blood sampling of the animals were performed by trained and skilled staff. Before the studies the dogs were fasted overnight and from 0 to 4 h after dosing. Besides, the dogs were restricted to water 1 hour before dosing until 4 hours after dosing, but otherwise have ad libitum access to water during the whole period.
# The tablets used for the p.o. studies described herein were immediate release SNAC-based tablets dosed orally.
# The tablets were administered in the following manner: 10 min prior to tablet administration the dogs may be dosed subcutaneously with approximately 3 nmol/kg of SEQ ID NO: 237, tablets were placed in the back of the mouth of the dog to prevent chewing. The mouth was then closed, and 10 mL of tap water was given by a syringe or gavage to facilitate swallowing of the tablet.
# Blood was sampled at predefined time points for up till 240 hours, such as up till 10 hr, post dosing to adequately cover the full plasma concentration-time absorption profile of the GLP-1 agonist.
# For each blood sampling time point approximately 0.8 mL of whole blood was collected in a 1.5 mL EDTA coated tube, and the tube was gently turned to allowing mixing of the sample with the EDTA. Blood samples (for example 0.8 mL) were collected in EDTA buffer (8 mM) and then centrifuged at 4° C. and 2000 G for 10 minutes. Plasma was pipetted into Micronic tubes on dry ice, and kept at -20° C. until analysis.
# Blood samples were taken as appropriate, for example from a venflon in the cephalic vein in the front leg for the first 2 hours and then with syringe from the jugular vein for the rest of the time points (the first few drops were allowed to drain from the venflon to avoid heparin saline from the venflon in the sample).
# Plasma concentration of the GLP-1 receptor-amylin receptor co-agonists were determined using LCMS. Individual plasma concentration-time profiles were analysed by a non-compartmental model in WinNonlin v. 5.0 or Phoenix v. 6.2 or 6.3 (Pharsight Inc., Mountain View, CA, USA), or other relevant software for PK analysis.
# The individual plasma concentration-time profiles were analysed by non-compartmental analysis (NCA).
# [3] = Table 4a, BHK hAmyR3/CRE-Luc cells, 3 hours, read-out: Human AmyR3 potency [EC50 (pM)]
# [4] = Table 4a, BHK cells expressing human GLP-1R, CRE-Luc, 3 hours, read-out: Human GLP-1R potency [EC50 (pM)]
# [5] = Table 4c, further comparator compounds, read-out: Human AmyR3 potency [EC50 (pM)]
# [6] = dogs, oral administration (tablet)
# T2 sequence (P43220 24-463): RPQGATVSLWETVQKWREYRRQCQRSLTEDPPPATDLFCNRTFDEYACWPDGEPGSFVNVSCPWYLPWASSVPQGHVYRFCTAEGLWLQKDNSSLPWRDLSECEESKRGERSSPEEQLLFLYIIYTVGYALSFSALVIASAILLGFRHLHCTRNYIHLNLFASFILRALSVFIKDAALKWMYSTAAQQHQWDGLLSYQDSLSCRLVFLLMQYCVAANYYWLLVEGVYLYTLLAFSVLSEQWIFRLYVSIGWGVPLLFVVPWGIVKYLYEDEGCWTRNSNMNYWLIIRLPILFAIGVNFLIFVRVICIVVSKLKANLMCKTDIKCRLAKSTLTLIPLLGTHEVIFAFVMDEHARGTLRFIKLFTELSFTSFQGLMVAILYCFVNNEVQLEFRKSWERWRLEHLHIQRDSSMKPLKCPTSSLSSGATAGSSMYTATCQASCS
# T1 sequence (P30988 25-474): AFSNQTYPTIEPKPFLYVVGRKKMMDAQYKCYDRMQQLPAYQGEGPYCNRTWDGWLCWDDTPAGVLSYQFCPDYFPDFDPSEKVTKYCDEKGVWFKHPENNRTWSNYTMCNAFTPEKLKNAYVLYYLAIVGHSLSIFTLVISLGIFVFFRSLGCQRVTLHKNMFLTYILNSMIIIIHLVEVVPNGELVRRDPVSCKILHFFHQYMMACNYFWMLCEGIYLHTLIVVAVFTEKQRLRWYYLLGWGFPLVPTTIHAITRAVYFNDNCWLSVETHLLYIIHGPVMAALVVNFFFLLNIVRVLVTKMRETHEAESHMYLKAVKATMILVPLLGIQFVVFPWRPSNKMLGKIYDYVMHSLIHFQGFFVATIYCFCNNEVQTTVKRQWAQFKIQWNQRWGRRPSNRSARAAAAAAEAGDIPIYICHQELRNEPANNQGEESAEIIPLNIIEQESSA
# T1 sequence (O60896 24-148): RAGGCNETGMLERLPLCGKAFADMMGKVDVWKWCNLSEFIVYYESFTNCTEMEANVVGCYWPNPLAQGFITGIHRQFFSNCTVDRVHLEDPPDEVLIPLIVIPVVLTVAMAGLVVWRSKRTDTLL
"EC50 [1, 3] [pM]",EC50 (human GLP-1 receptor; [4]) [pM],Substance,"Food intake relative to vehicle (%) 0-24 hr, 10 nmol/kg (Sprague Dawley (SD) rats; Table 6a) [%]","Food intake relative to vehicle (%) 24-48 hr, 10 nmol/kg (Sprague Dawley (SD) rats; Table 6a) [%]",other results
21.7,1.5,H[Aib]EGTFTSDVSSYLEEQAARK([AEEA-AEEA-γGlu-C18 diacid])FIAWLVRGRK([AEEA-AEEA-γGlu-C18 diacid])GGEASELSTAALGRLSAELHELATLPRTETGSGSP-NH2 [Compound 0116],83,82,–
45.9,3.5,H-H[Aib]EGTFTSDVSSYLEEK([AEEA-AEEA-γGlu-C16 diacid])AAREFIAWLVRGRGGGGGEASELSTAALGRLSAELHELATLPRTETGK([AEEA-AEEA-γGlu-C16 diacid])GSP-NH2 [Compound 0411],81,88,–
6.6,7.4,H-H[Aib]EGTFTSDVSSYLEGQAAK([AEEA-AEEA-γGlu-Trx-C20 diacid])EFIAWLVRGRGGGGGGGGGEASELSTAALGRLSAELHELATLPRTETGSGSP-NH2 [Compound 0095],55,95,–
13.9,11.8,HWEGTFTSDVSSYLEEK([εLys-AEEA-AEEA-γGlu-Trx-C20 diacid])AAREFIEWLVRGRGEASELSTAALGRLSAELHELATLPRTETGSGSP-NH2 [Compound 0434],39,105,–
10.8,16.2,H-H[Aib]EGTFTSDVSSYLEGQAAKEFIAWLVRGRK([AEEA-AEEA-γGlu-C18 diacid])GGEASELSTAALGRLSAELHELATLPRTETGSGSP-NH2 [Compound 0042],52,101,–
6.2,6.4,H-H[Aib]EGTFTSDVSK([AEEA-AEEA-γGlu-C20 diacid])YLEEQAAREFIAWLVRGRGGGGGEASELSTAALGRLSAELHELATLPRTETGSGSP-NH2 [Compound 0565],39,42,–
19.4,17,H-H[Aib]EGTFTSDVSSYLEGQAAK([AEEA-AEEA-γGlu-C18 diacid])EFIAWLVRGRGGGGGGGGGEASELSTAALGRLSAELHELATLPRTETGSGSP-NH2 [Compound 0052],42,86,–
9.4,13.3,H-H[Aib]EGTFTSDVSSYLEGQAAK([AEEA-AEEA-γGlu-C18 diacid])EFIAWLVRGRGGGEASELSTAALGRLSAELHELATLPRTETGSGSP-NH2 [Compound 0007],67,105,–
–,–,"H-H[Aib]EGTFTSDVSSYLEEQAAREIFAWLVRGRK([AEEA-AEEA-γGlu-Trx-C20 diacid])GGGGEASELSTAALGRLSAELHELATLPRTETGSGSP-NH2 [Comparator compound 0167, reference compound]",–,–,"EC50 [1, 5]: 10.9 pM; Ability to agonise the amylin receptor, in words [1]: full amylin potency; Food intake relative to vehicle (%) 0-24 hr, 10 nmol/kg (Sprague Dawley (SD) rats; Table 6b): 85%; Food intake relative to vehicle (%) 24-48 hr, 10 nmol/kg (Sprague Dawley (SD) rats; Table 6b): 73%; Inhibition of food intake, in words (Sprague Dawley (SD) rats): significantly less than in the case of compound 0120; EC50 (human GLP-1 receptor; Table 4c, further comparator compounds): ≥ 10000 pM; Ability to agonise the GLP-1 receptor, in words (human GLP-1 receptor; Tables 4a-4c): impaired their ability to agonise (activate) the GLP-1 receptor; also recorded: impaired GLP-1 activity"
9.1,16,H-H[Aib]EGTFTSDVSSYLEGQAAK([εLys-AEEA-AEEA-γGlu-C18 diacid])EFIAWLVRGRGGGEASELSTAALGRLSAELHELATLPRTETGSGSP-NH2 [Compound 0044],40,82,–
–,–,"H-H[Aib]EGTFTSDVSSYLEEQAAREFIAWLVRGRK([AEEA-AEEA-γGlu-Trx-C20 diacid])GGGGEASELSTAALGRPSAELHELATLPRTETGSGSP-NH2 [Comparator compound 0192, reference compound]",–,–,"EC50 [1, 5]: ≥ 10000 pM; Ability to agonise the amylin receptor, in words [1]: impaired their ability to agonise (activate) the amylin receptor; also recorded: impaired amylin activity; Food intake relative to vehicle (%) 0-24 hr, 10 nmol/kg (Sprague Dawley (SD) rats; Table 6b): 71%; Food intake relative to vehicle (%) 24-48 hr, 10 nmol/kg (Sprague Dawley (SD) rats; Table 6b): 67%; Inhibition of food intake, in words (Sprague Dawley (SD) rats): significantly less than in the case of compound 0120"
16,16.7,Desaminohistidyl-AEGTFTSDVSSYLEEQAAREFIAWLVRGRK([AEEA-AEEA-γGlu-Trx-C20 diacid])EASELSTAALGRLSAELHELATLPRTETGSGSP-NH2 [Compound 0035],76,95,–
33.8,12,H-H[Aib]EGTFTSDK([AEEA-AEEA-γGlu-C16 diacid])SSYLEEQAAREFIAWLVRGRGGGGGASELSTAALGRLSK([AEEA-AEEA-γGlu-C16 diacid])ELHELATLPRTETGSGSP-NH2 [Compound 0292],–,–,"AUC/D ([2]; dog, in vivo, po): 65.29 kg·h/L; Cmax/D ([2]; dog, in vivo, po): 0.72 kg/L; Tmax ([2]; dog, in vivo, po, Tmax (hr)): 2 h; half-life ([2]; dog, in vivo, po, T½ (hr)): 110 h"
–,–,H-HWEGTFTSDVSSYLEEQAAREFIEWLVRGK([AEEA-AEEA-γGlu-Decanoyl(10-(4-HOOC-PhO))])GEGGGGGASELSTAALGRLSAELHELK([AEEA-AEEA-γGlu-Decanoyl(10-(4-HOOC-PhO))])TLPRTETGSGSP-NH2 [Compound 0234],–,–,"AUC/D [2, 6]: 8.00 kg·h/L; Cmax/D [2, 6]: 0.35 kg/L; Tmax ([2]; dog, in vivo, dogs, oral administration (tablet), read-out: Tmax): 1 h; half-life ([2]; dog, in vivo, dogs, oral administration (tablet), read-out: T½ (converted)): 31 h; EC50 [1]: 38.4 pM; EC50 (human GLP-1 receptor): 38.9 pM"
8.1,6,H-H[Aib]EGTFTSDVSSYLEEK([AEEA-AEEA-γGlu-Trx-C20 diacid])AAREFIAWLVRGRGGGGEASELSTAALGRLSAELHELATLPRTETGSGSP-NH2 [Compound 0265],–,–,"AUC/D ([2]; dog, in vivo, po): 5.68 kg·h/L; Cmax/D ([2]; dog, in vivo, po): 0.16 kg/L; Tmax ([2]; dog, in vivo, po, Tmax (hr)): 2 h; half-life ([2]; dog, in vivo, po, T½ (hr)): 16 h"
12.3,15.2,H-H[Aib]EGTFTSDVSSYLEEQAAK([εLys-AEEA-AEEA-γGlu-Trx-C20 diacid])EFIEWLVRGRGEASELSTAALGRLSAELHELATLPRTETGSGSP-NH2 [Compound 0436],–,–,"AUC/D ([2]; dog, in vivo, po): 15.00 kg·h/L; Cmax/D ([2]; dog, in vivo, po): 0.3 kg/L; Tmax ([2]; dog, in vivo, po, Tmax (hr)): 1.5 h; half-life ([2]; dog, in vivo, po, T½ (hr)): 35 h"
14.5,16.1,H[Aib]EGTFTSDVSSYLEEQAARK([γGlu-C18 diacid])FIAWLVRGRK([γGlu-C18 diacid])EASELSTAALGRLSAELHELATLPRTETGSGSP-NH2 [Compound 0131],70,80,–
110,7.1,H-H[Aib]EGTFTSDVSK([Ahx-γGlu-γGlu-C16 diacid])YLEEQAARK([Ahx-γGlu-γGlu-C16 diacid])FIEWLVRGAAEASELSTAALGRLSAELHELATLPRTETGSGSP-NH2 [Compound 0630],–,–,"AUC/D ([2]; dog, in vivo, po): 33.33 kg·h/L; Cmax/D ([2]; dog, in vivo, po): 0.53 kg/L; Tmax ([2]; dog, in vivo, po, Tmax (hr)): 1.5 h; half-life ([2]; dog, in vivo, po, T½ (hr)): 73 h"
